ChEMBL document CHEMBL4364241, “Developments in the anticancer activity of structurally modified curcumin: An up-to-date review” (Eur J Med Chem, 2019)
Blank lines part the entries; values can stand above or below the compound they belong to.

Experiments:
[1] = test system: SK-OV-3; experiment: Cytotoxicity against human SKOV3 Cells after 48 hrs by Cell Titer Blue assay; assay type: functional, cell-based; conditions: SK-OV-3, 48 h
[2] = test system: HeLa; experiment: Anticancer activity against human HeLa cells; assay type: functional, cell-based
[3] = test system: PC-3; experiment: Cytotoxicity against human PC3 cells by MTT assay; assay type: functional, cell-based
[4] = test system: MIA PaCa-2; experiment: Cytotoxicity against human MIAPaCa2 cells by MTT assay; assay type: functional, cell-based
[5] = test system: HT-29; experiment: Cytotoxicity against human HT-29 cells by MTT assay; assay type: functional, cell-based
[6] = test system: PANC-1; experiment: Cytotoxicity against human PANC1 cells by MTT assay; assay type: functional, cell-based
[7] = test system: NCI-H460; experiment: Cytotoxicity against human H460 cells by MTT assay; assay type: functional, cell-based
[8] = test system: A549; experiment: Cytotoxicity against human A549 Cells by MTT assay; assay type: functional, cell-based
[9] = test system: MCF7; experiment: Cytotoxicity against human MCF7 cells by MTT assay; assay type: functional, cell-based
[10] = test system: MCF7; experiment: Cytotoxicity against human MCF7 Cells after 48 hrs by MTT assay; assay type: functional, cell-based; conditions: MCF7, 48 h
[11] = test system: HepG2; experiment: Cytotoxicity against human HepG2 Cells after 48 hrs by MTT assay; assay type: functional, cell-based; conditions: HepG2, 48 h
[12] = Cytotoxicity against human LX2 Cells after 48 hrs by MTT assay; assay type: functional; conditions: LX-2, 48 h
[13] = test system: NIH3T3; experiment: Cytotoxicity against mouse 3T3 Cells after 48 hrs by MTT assay; assay type: functional, cell-based; conditions: NIH3T3, 48 h
[14] = test system: MCF7; experiment: Cytotoxicity against human MCF7 Cells after 48 hrs by neutral red dye-based assay; assay type: functional, cell-based; conditions: MCF7, 48 h
[15] = Cytotoxicity against mitoxantrone resistant […] cells expressing BCRP after 15 mins by fluorescence assay; assay type: functional, cell-based; conditions: Canis lupus familiaris, MDCK2, 0.25 h
[16] = test system: HT-29; experiment: Cytotoxicity against human HT-29 Cells; assay type: functional, cell-based
[17] = test system: AGS; experiment: Cytotoxicity against human AGS Cells by MTT assay; assay type: functional, cell-based
[18] = test system: GES1; experiment: Cytotoxicity against human GES-1 cells; assay type: functional, cell-based
[19] = test system: BGC-823; experiment: Cytotoxicity against human BGC823 cells; assay type: functional, cell-based
[20] = test system: SGC-7901; experiment: Cytotoxicity against human SGC7901 cells; assay type: functional, cell-based
[21] = test system: MGC-803; experiment: Cytotoxicity against human MGC803 cells; assay type: functional, cell-based
[22] = test system: HCT-116; experiment: Antitumor activity against human HCT116 cells after 72 hrs by FMCA method; assay type: functional, cell-based; conditions: HCT-116, 72 h, pooled result: one value given for 5 cell lines, strains, targets or settings
[23] = test system: HT-29; experiment: Cytotoxicity against human HT-29 Cells after 72 hrs by MTT assay; assay type: functional, cell-based; conditions: HT-29, 72 h
[24] = test system: EA.hy 926; experiment: Cytotoxicity against human EAhy926 Cells after 72 hrs by MTT assay; assay type: functional, cell-based; conditions: EA.hy 926, 72 h
[25] = test system: HepG2; experiment: Cytotoxicity against human HepG2 Cells after 72 hrs by MTT assay; assay type: functional, cell-based; conditions: HepG2, 72 h
[26] = test system: Caco-2; experiment: Cytotoxicity against human Caco2 Cells after 72 hrs by MTT assay; assay type: functional, cell-based; conditions: Caco-2, 72 h
[27] = test system: CHO-K1; experiment: Cytotoxicity against […] Cells after 72 hrs by MTT assay; assay type: functional, cell-based; conditions: Cricetulus griseus, CHO-K1, 72 h
[28] = test system: HCT-116; experiment: Growth inhibition of human HCT116 cells relative to control; assay type: functional
[29] = test system: KBM5; experiment: Growth inhibition of human KBM5 cells relative to control; assay type: functional
[30] = test system: HepG2; experiment: Cytotoxicity against human HepG2 Cells by MTT/Trypan Blue Exclusion Assay; assay type: functional, cell-based
[31] = test system: L02; experiment: Cytotoxicity against human HL-7702 cells; assay type: functional, cell-based
[32] = test system: HEp-2; experiment: Cytotoxicity against human Hep2 Cells; assay type: functional, cell-based

Compound: COc1ccc(/C=C/C(=O)/C=C(O)/C=C/c2ccc(OC)c(O)c2)cc1O
- IC50 [1]: 5.58 µM

- IC50 [2]: 0.5 µM
Compound: O=C(/C=C(O)/C=C/c1ccc(OCC(=O)NCC(=O)O)cc1)/C=C/c1ccc(OCC(=O)NCC(=O)O)cc1

Compound: CCOC(OCC)c1ccc(CC2CN(C)CC(Cc3ccc(C(OCC)OCC)cc3)C2=NO)cc1 (stereo not drawn)
- IC50 [3]: 0.2 µM
- IC50 [4]: 0.4 µM
- IC50 [5]: 0.4 µM
- IC50 [6]: 0.4 µM
- IC50 [7]: 0.2 µM
- IC50 [8]: 0.3 µM
- IC50 [9]: 0.2 µM

Compound: COc1ccc(/C=C/C(=O)Oc2ccc(/C=C/C(=O)CC(=O)/C=C/c3ccc(OC(=O)/C=C/c4ccc(OC)c(O)c4)c(OC)c3)cc2OC)cc1O
- IC50 [10]: 0.51 µM
- IC50 [11]: 0.58 µM
- IC50 [12]: 0.63 µM
- IC50 [13]: 0.79 µM

Compound: CC/C(=C(\c1ccccc1)c1ccc(OCCN(C)C)cc1)c1ccccc1 [TAMOXIFEN]
- IC50 [14]: 4 µM

Compound: COc1cc(F)c(/C=C2\CNC/C(=C\c3cc(OC)c(OC)cc3F)C2=O)cc1OC
- IC50 [15]: 5.2 µM

Compound: COc1cc(/C=C/C(=O)CC(=O)/C=C/c2ccc(OC3O[C@H](CO)[C@@H](O)[C@H](O)[C@H]3O)c(OC)c2)ccc1OC1O[C@H](CO)[C@@H](O)[C@H](O)[C@H]1O (stereo partly drawn)
- IC50 [16]: 41.6 µM

Compound: COc1cc(/C=C/C(=O)/C(CNc2ccc(S(N)(=O)=O)cc2)=C(O)/C=C/c2ccc(O)c(OC)c2)ccc1O
- IC50 [17]: 10.2 µM
- IC50 [8]: 1.29 µM

Compound: COc1ccc(OC)c(/C=C2\CC/C(=C\c3ccc(O)c(OC)c3)C2=O)c1
- IC50 [18]: 27.3 µM
- IC50 [19]: 4.7 µM
- IC50 [20]: 3.9 µM
- IC50 [21]: 13.3 µM

Compound: COc1cc(/C=C/C2=NN(c3nc(/N=C4\CC[C@H]5[C@@H]6CC[C@H]7C[C@@H](OC(C)=O)CC[C@]7(C)[C@H]6CC[C@]45C)cc(=O)[nH]3)C(/C=C/c3ccc(O)c(OC)c3)C2)ccc1O (stereo partly drawn)
- IC50 [14]: 18 µM

- IC50 [2]: 0.5 µM
Compound: COc1cc(/C=C/C(=O)/C=C(O)/C=C/c2ccc(OCC(=O)NCC(=O)O)c(OC)c2)ccc1OCC(=O)NCC(=O)O

- IC50 [22]: 0.19 µM
Compound: CCCC(=O)Oc1ccc(/C=C2\CN(C(=O)c3ccccc3)C/C(=C\c3ccc(OC(=O)CCC)c(OCC)c3)C2=O)cc1OCC

Compound: O=C(/C=C(O)/C=C/c1cccnc1)/C=C/c1cccnc1
- IC50 [23]: 8.2 µM
- IC50 [24]: 7.9 µM
- IC50 [25]: 8.3 µM
- IC50 [26]: 6.9 µM
- IC50 [27]: 7.2 µM

Compound: COc1ccc(NC(=O)COc2ccc(/C=C/C(=O)/C=C/c3ccc(OCC(=O)Nc4ccc(OC)cc4)c(OC)c3)cc2OC)cc1
- growth inhibition (GI) [28]: 57.96%
- growth inhibition (GI) [29]: 83.63%

Compound: COc1cc(CCC2=NC(=S)N=C(CCc3ccc(O)c(OC)c3)C2=Cc2coc3c(OC)c4occc4c(OC)c3c2=O)ccc1O
- IC50 [30]: 23 µM

Compound: COc1cc(/C=C/C(=O)/C=C/c2ccc(OCC(=O)Nc3ccccc3)c(OC)c2)ccc1OCC(=O)Nc1ccccc1
- growth inhibition (GI) [28]: 60.13%
- growth inhibition (GI) [29]: 86.76%

Compound: O=C(/C=C(O)/C=C/c1ccc[nH]1)/C=C/c1ccc[nH]1
- IC50 [23]: 8.9 µM
- IC50 [24]: 8.3 µM
- IC50 [25]: 8.2 µM
- IC50 [26]: 7.5 µM
- IC50 [27]: 6.9 µM

Compound: CCN1C/C(=C\c2cc(OC)c(OC)c(OC)c2)C(=O)/C(=C/c2cc(OC)c(OC)c(OC)c2)C1
- IC50 [31]: 46.8 µM
- IC50 [32]: 16.6 µM

Compound: COc1ccc(OC)c(/C=C2\CNC/C(=C\c3cc(OC)ccc3OC)C2=O)c1
- IC50 [15]: 1.2 µM
